US20230348401A1, “Inhibitors of Glucose-6-phosphate Dehydrogenase and Uses Thereof” (The Trustees of Princeton University, priority 2020, published 2023)

Tests used:
RBCs = experiment: NADPH pools in red blood cells; assay type: cell-based, mouse
Description: To isolate red blood cells, mice were euthanized by cervical dislocation followed by collection of approximately 200 µL whole blood via cardiac puncture into tubes containing 7.5 µL heparin (1000USP/mL, H3393, Sigma Aldrich). The cells were incubated on ice for approximately 5 minutes, then centrifuged (5 minutes, 500 rpm, 4° C.) followed by aspiration of the serum and buffy coat layer. Cells were gently resuspended in PBS and then pelleted (5 minutes, 500 rpm, 4° C.) three times. Cells were then resuspended in RPMI media and used immediately for experiments.
For suspension cells (including T cells and red blood cells), 2×10^6 cells were seeded in 1 mL of media in 12-well plates and incubated with appropriate media, which included isotope tracers and/or chemical inhibitors and/or cytokines, as described. For all experiments involving small molecule agents, DMSO concentrations were <0.2%. After 2 hours, cell suspensions were transferred to 1.5 mL tubes and pelleted (30 seconds, 6000 rpm, room temperature). Media was removed by aspiration and metabolome extraction was performed by the addition of 75 µL of ice cold solvent (40:40:20 ACN:MeOH:H2O + 0.5%FA). After a 5-minute incubation on ice, acid was neutralized by the addition of NH4HCO3. […]

naïve CD8+ T cells = experiment: T cell activation, proliferation and viability (flow cytometry); assay type: cell-based, mouse
Description: The functional consequences of oxPPP inhibition were next explored using G6PDi-1 in T cells. To test the effect of G6PDi-1 on activation and proliferation, naïve CD8+ T cells were isolated from spleen and activated in vitro with plate-bound αCD3/αCD28 and IL-2. Activation was evaluated by flow cytometry analysis of surface markers CD69 (levels rapidly rise upon activation) and CD25 (usually peaking at 24-48 hours post-activation), and cell size, which increases over the first 24 hours post-activation. To quantify proliferation, naïve cells were stained with […] (CTV) and dye dilution was measured by flow cytometry at day 4 post-activation.
To analyze cell surface markers expression, cells were collected, washed with PBS and stained with the viability dye Live/Dead Aqua. Cells were then washed with staining buffer and stained for surface markers: CD4 (APC-Cy7, clone RM4-5,), CD8a (PerCP-Cy5.5, clone 53-6.7), CD25 (APC, clone PC61), CD44 (PE-Cy7, clone IM7), CD62L (PE, clone MEL-14) CD69 (FITC, clone H1.2F3), for T cells; CD11b (APC, clone M1/70 and F4/80 (FITC, clone BM8) for macrophages.
To analyze proliferation, naïve CD8 T cells were stained with CTV dye and either maintained in a naïve state with IL7 or stimulated with αCD3/αCD28 + recombinant IL-2 in the presence of increasing concentrations of G6PDi-1. Cells were refed at days 2 and 3 post-stimulation, and proliferation was measured at day 4 post-activation. Cells were collected, washed with staining buffer and stained with the viability dye propidium iodide.

G6PD [1] = biological target: T1, G6PD (Homo sapiens, UniProt P11413); experiment: 6-pg levels in HepG2 cells (cellular target engagement); assay type: cell-based; parameters: endogenous in cells; conditions: HepG2 cells; read-out: IC50, decrease in 6-pg levels
Description: Direct Monitoring of 6-pg in cells. The metabolite 6-phosphogluconate (6-pg) is a downstream product of the G6PD reaction, and is believed to be made predominantly by the oxidative pentose phosphate pathway in mammalian cells. Though the direct product of G6PD is the lactone form of 6-pg (6-phosphogluconolactone), this product is believed to readily hydrolyze to 6-pg under cellular conditions, and is therefore difficult to detect. Thus, to directly monitor the G6PD reaction, methods for measuring 6-pg levels in intact cells were developed.
To explore this possibility further, more specific assays for evaluating G6PD cellular target engagement were developed. […] These included the hepatocellular carcinoma line, HepG2, which was selected as the primary cell for direct 6-pg monitoring. Consistent with the oxPPP being the primary source of 6-pg in these cells, G6PD knockout led to nearly complete 6-pg loss (FIGS. 1B and 1C).
For analysis of intracellular metabolites by LC-MS, adherent cell lines were plated and grown to 80% confluency in 6-well plates. At the start of an experiment, the appropriate media was added to cells, which included isotope tracers and/or chemical inhibitors as described. Cells were incubated at 37° C. at 5% CO2 for 2 hours (unless otherwise noted). For all experiments involving small molecule agents, DMSO concentrations were <0.2%. After 2 hours, media was removed by aspiration and metabolome extraction was performed (without any wash steps) by the addition of 800 µL of ice cold solvent (40:40:20 acetonitrile:methanol:water + 0.5% formic acid). After a 1-minute incubation on ice, the extract was neutralized by the addition of NH4HCO3 (15% w/v). The samples were incubated at -20° C. for approximately 30 minutes, at which point the wells were scraped and the extract transferred to Eppendorf tubes and centrifuged (15 minutes, 16000 rpm, 4° C.). The resulting supernatant was frozen on dry ice and kept at -80° C. until LC-MS analysis.
Metabolites were analyzed using a quadrupole-orbitrap mass spectrometer (Q Exactive Plus, Thermo Fisher Scientific, Waltham, MA), coupled to hydrophilic interaction chromatography (HILIC) with LC separation on a XBridge BEH Amide column (Waters), or a stand-alone orbitrap (Thermo-Fisher Exactive) coupled to reversed-phase ion-pairing chromatography with LC separation on a HSS-T3 column (Waters). Both mass spectrometers were operating in negative ion mode and were coupled to their respective liquid chromatography methods via electrospray-ionization. Detailed analytical conditions have been previously described.
Target sequence in this assay (P11413 whole entry): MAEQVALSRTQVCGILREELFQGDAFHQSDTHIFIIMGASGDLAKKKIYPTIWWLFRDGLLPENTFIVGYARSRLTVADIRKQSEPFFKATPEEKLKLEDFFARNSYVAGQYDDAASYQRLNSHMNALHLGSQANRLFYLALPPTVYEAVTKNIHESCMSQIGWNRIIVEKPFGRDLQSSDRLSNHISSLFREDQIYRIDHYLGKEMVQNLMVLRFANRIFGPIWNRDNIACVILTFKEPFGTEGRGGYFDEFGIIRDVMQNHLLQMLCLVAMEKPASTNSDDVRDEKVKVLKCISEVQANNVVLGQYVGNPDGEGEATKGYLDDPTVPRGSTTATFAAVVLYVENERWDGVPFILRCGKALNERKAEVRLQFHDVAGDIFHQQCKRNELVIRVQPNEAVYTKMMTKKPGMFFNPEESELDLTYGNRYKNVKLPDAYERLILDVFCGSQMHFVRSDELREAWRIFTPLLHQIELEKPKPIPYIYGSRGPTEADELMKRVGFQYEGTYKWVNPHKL

G6PD [2] = biological target: T1, G6PD; experiment: G6PD enzymatic activity by diaphorase-coupled assay
Target sequence in this assay (P11413 28-515): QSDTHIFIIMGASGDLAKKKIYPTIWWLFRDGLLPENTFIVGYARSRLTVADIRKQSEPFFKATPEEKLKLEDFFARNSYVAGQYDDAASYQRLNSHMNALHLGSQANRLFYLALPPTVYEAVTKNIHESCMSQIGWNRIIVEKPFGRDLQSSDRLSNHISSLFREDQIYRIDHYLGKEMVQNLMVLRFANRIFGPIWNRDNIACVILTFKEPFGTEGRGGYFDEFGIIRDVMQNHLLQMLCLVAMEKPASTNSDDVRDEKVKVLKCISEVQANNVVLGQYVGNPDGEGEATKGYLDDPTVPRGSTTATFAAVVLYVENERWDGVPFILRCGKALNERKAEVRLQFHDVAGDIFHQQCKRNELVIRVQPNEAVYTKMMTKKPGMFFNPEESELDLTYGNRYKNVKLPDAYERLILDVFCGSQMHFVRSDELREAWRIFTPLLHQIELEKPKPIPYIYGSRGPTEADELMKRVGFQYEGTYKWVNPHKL

`N#Cc1cc(Nc2ncc3c(n2)CCCCC3=O)cs1` [Compound 2, 4-([5-oxo-6H,7H,8H,9H-cyclohepta[d]pyrimidin-2-yl]amino)thiophene-2-carbonitrile] was tested. Which “sensitivity of NADPH pools” value (RBCs) did it give?
The value was “fairly sensitive”.

And the “proliferation of CD4+ T cells” value (naïve CD8+ T cells; CD4+ T cells)?
The value was “minimal effect”.

What about the viability (naïve CD8+ T cells; CD8+ T cells) of the same compound?
Its viability is “minimal effect”.

What about the activation-dependent proliferation (naïve CD8+ T cells; CD8+ T cells, day 4 post-activation) of the same compound?
The activation-dependent proliferation was “minimal effect”.

What about the “upregulation of activation markers and activation-dependent increase in cell size” value (naïve CD8+ T cells; CD8+ T cells, αCD3/αCD28 and IL-2) of the same compound?
The value was “did not alter”.

What about the IC50 (G6PD [1]) of the same compound?
The IC50 was ~13 µM.

And the “mode of binding to G6PD” value (G6PD [2]; competition assays against both substrates, in vitro dilution experiments)?
The value was “non-competitively and reversibly”.

What about the IC50 (G6PD [2]; read-out: IC50 (half-maximal inhibitory constant) against human G6PD, coupled enzymatic assay, recombinant human enzyme) of the same compound?
Its IC50 is 0.07 µM.
